Experimental data as given in patent publication US9090651B2, “Helix 12 directed pharmaceutical products” (ENDORECHERCHE, INC., priority 2004, dated 2015).
Where “and” joins values, the source holds several entries; their conditions need not be identical. Equal entries are not always repeated. Where two headings read alike, the source gives them in different places.

Assays:
rat prostate = assay: Systemic antiandrogenic activity, orchidectomized immature male rats with DHT implant: prostate weight; type: in vivo; conditions: for inhibition in vivo at 0.5 mg: Rattus norvegicus, sc, 168 h, read-out: IN VIVO Rat s.c. (+DHT) Prostate % inhibition, s.c., 0.5 mg/animal once daily for 7 days, +DHT
Description: (§1) Immature male rats (Crl:CD(SD)Br) 22 to 24-day old were obtained from Charles-River, Inc. (St-Constant, Quebec, Canada) and housed up to 5 per cage in plastic bins in a temperature (23±1° C.)- and light (12 h light/day, lights on at 7 h15)-controlled environment. The rats were fed rodent chow and tap water ad libitum. The day following their arrival, the animals were orchidectomized (CX) under Isoflurane anesthesia via scrotal route and randomly assigned to groups of 5 animals.
(§2) Compounds were solubilized (when possible) in dimethylsulfoxide (DMSO, 10% final concentration) and administered as suspension in 0.4% methylcellulose. […] One group of animals received the antiandrogen Flutamide as reference. The animals were killed by cervical dislocation under isoflurane anesthesia on the 8th morning following castration. The ventral prostate and seminal vesicles were rapidly dissected and weighed.
(§3) W is the weight of the prostate or the seminal vesicle.

rat seminal vesicle = assay: Systemic antiandrogenic activity, orchidectomized immature male rats with DHT implant: seminal vesicle weight; type: in vivo; conditions: for inhibition in vivo at 0.5 mg: Rattus norvegicus, sc, 168 h, read-out: IN VIVO Rat s.c. (+DHT) SV % inhibition, s.c., 0.5 mg/animal once daily for 7 days, +DHT; for IN VIVO Rat s.c. (+DHT) SV % inhibition: 0.5 mg/animal once daily for 7 days
Description: as §1, §2, §3

Human Androgen Receptor = target: T1, Human Androgen Receptor (Homo sapiens, UniProt P10275); assay: Androgen receptor binding assay (hydroxylapatite, [3H]R1881, cytosol of transfected HEK-293 cells); conditions: % RBA=100×IC50 R1881/IC50 compound, transfected cells
T1 sequence (P10275 1-920): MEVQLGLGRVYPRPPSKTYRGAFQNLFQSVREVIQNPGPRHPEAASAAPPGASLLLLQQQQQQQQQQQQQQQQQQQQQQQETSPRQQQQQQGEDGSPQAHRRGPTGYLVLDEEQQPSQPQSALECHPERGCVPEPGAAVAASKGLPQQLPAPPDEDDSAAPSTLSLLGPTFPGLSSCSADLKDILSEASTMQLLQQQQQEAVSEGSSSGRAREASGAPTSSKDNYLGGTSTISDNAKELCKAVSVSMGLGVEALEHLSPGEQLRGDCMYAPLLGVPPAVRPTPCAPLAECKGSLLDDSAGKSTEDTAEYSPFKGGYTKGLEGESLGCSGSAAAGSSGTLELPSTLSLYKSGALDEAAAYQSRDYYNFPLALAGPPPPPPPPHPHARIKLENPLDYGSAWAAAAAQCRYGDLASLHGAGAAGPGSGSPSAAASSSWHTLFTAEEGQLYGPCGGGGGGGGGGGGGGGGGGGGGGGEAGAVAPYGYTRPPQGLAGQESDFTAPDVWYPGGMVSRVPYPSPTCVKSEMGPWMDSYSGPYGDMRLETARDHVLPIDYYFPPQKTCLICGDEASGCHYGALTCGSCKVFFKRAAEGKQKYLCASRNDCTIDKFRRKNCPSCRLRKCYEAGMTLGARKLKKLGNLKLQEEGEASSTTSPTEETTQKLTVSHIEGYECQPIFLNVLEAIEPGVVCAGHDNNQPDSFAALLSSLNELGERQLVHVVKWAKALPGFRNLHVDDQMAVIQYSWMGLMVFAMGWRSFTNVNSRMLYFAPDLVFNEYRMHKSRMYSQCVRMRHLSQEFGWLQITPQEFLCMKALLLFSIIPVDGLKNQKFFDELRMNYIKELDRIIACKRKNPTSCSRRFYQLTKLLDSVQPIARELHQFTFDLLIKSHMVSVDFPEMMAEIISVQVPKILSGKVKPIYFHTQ

[1] = test system: Shionogi mouse mammary carcinoma cells; assay: Androgenic/antiandrogenic activity on DHT-stimulated Shionogi cell growth; type: cell-based
[2] = read-out: Shionogi Antiandrogenic activity IC50, inhibition of DHT-stimulated Shionogi cell number
[3] = Mus musculus, read-out: Shionogi Antiandrogenic activity IC50 (nM), inhibition of DHT-stimulated Shionogi cell number

SMILES | inhibition in vivo at 0.5 mg (rat prostate) | inhibition in vivo at 0.5 mg (rat seminal vesicle) | Androgen Receptor Binding (%) Human RBA R1881 = 100 (Human Androgen Receptor) | IC50 [1, 3] | further results
CCC(NC1CCCCC1)c1cccc(OCC[C@]23CCC4C(CCC5=CC(=O)CC[C@@]54C)C2CC[C@@H]3O)c1 (stereo partly shown) [EM-6798] | 20% | 29% | 118% |  | IN VIVO Rat (+DHT) Prostate % inhibition (1 mg, po) (rat prostate; 1 mg, po, +DHT): 17%; IN VIVO Rat (+DHT) SV % inhibition (1 mg, po) (rat seminal vesicle; 1 mg, po, +DHT): 19%
CCCC(NC(CC)CC)c1cccc(OCC[C@]23CCC4C(CCC5=CC(=O)CC[C@@]54C)C2CC[C@@H]3O)c1 (stereo partly shown) [EM-6841] |  |  | 139% |  | IN VIVO Rat s.c. (+DHT) Prostate % inhibition (rat prostate; s.c., 0.5 mg/animal once daily for 7 days, +DHT): 21%; IC50 [1, 2]: 0.1 nM; IN VIVO Rat s.c. (+DHT) SV % inhibition (rat seminal vesicle; +DHT): 5%
CCC(CC)N(C)C(CC)c1cccc(OCC[C@]23CCC4C5CCC(=O)C=C5CCC4C2CC[C@]3(C)O)c1 (stereo partly shown) [EM-6902] | 2% | 0% | 107% | 0.06 nM | 
CCC(NC(C)C)c1cccc(OCC[C@]23CCC4C(CCC5=CC(=O)CC[C@@]54C)C2CC[C@]3(C)O)c1 (stereo partly shown) [EM-6918] | 29% | 0% | 120% |  | 
CCCC(NC(CC)CC)c1cccc(OCC[C@]23CCC4C(CCC5=CC(=O)CC[C@@]54C)C2CC[C@@H]3O)c1 (stereo partly shown) [EM-6928] |  |  | 146% and 181% |  | IC50 [1, 2]: 0.04 nM; IN VIVO Rat s.c. (+DHT) SV % inhibition (rat seminal vesicle; +DHT): 0%
CCCC(NC(CC)CC)c1cccc(OCC[C@]23CCC4C5CCC(=O)C=C5C(C)(C)CC4C2CCC3=O)c1 (stereo partly shown) [EM-6993] |  | 0% | 35% | 16.4 nM | 
CCC(CC)NC(CN(C)C)c1cccc(OCC[C@]23CCC4C(CCC5CC(=O)CC[C@@]54C)C2CC[C@@H]3O)c1 (stereo partly shown) [EM-7118] | 31% | 0% | 176% | 7.2 nM | 
CCC(CC)NC(CC)c1cc(OCC[C@]23CCC4C(CCC5=CC(=O)CC[C@@]54C)C2CC[C@@H]3O)ccn1 (stereo partly shown) [EM-7136] | 27% | 35% | 92.7% and 93% | 0.2 nM | 
CCC(NC1CCCC1)c1cc(OCC[C@]23CCC4C(CCC5=CC(=O)CC[C@@]54C)C2CCC3O)ccn1 (stereo partly shown) [EM-7165] |  |  | 26.6% | 1.4 nM | 
CCC(NC1CCCCC1)c1cc(OCC[C@]23CCC4C(CCC5=CC(=O)CC[C@@]54C)C2CCC3O)ccn1 (stereo partly shown) [EM-7166] |  |  | 22.3% | 3.5 nM | 
CCC(NC1CCOCC1)c1cncc(OCC[C@]23CCC4C(CCC5=CC(=O)CC[C@@]54C)C2CCC3O)c1 (stereo partly shown) [EM-7176] |  |  | 16% | 7.2 nM | 
COCC(NC1CCCCC1)c1cncc(OCC[C@]23CCC4C(CCC5=CC(=O)CC[C@@]54C)C2CCC3O)c1 (stereo partly shown) [EM-7184] |  |  | 57% | 7.4 nM | 
CCCC(NC1CCCC1)c1cccc(OCC[C@]23CCC4C5CCC(=O)C=C5C[C@H](C)C4C2CC[C@]3(C)O)c1 (stereo partly shown) [EM-7218] | 35% | 0% | 112% |  | 
CN(C)CC(NC1CCCCC1)c1cncc(OCC[C@]23CCC4C(CCC5=CC(=O)CC[C@@]54C)C2CCC3O)c1 (stereo partly shown) [EM-7221] |  |  | 20% | 11 nM | 
